# Experimental data as given in patent US20090281054A1, “COMPOSITIONS AND METHODS COMPRISING CAPURAMYCIN ANALOGUES” (priority 2008, published 2009).
# “And” between values parts separate entries of the source, which are not always exact repeats. Identical values can stand only once. Like-named read-outs stand apart in the source and are kept apart here.
# Key:
# in vitro = assay type: cell-based; conditions: mouse
# Procedure: (§1) The SQ997 amino acid derivatives shown in Table 2 were tested for in vitro activity against MTB, cytotoxicity for uninfected J774 cells to determine IC50, and for intracellular activity in the macrophage assay (Table 15). […] Cell viability remained similar to SQ997, or slightly better as cell morphologic changes were reduced.
# MTB H37Rv = experiment: MIC by broth microdilution; assay type: cell-based; conditions: Mycobacterium tuberculosis
# Procedure: as §1
# M. smegmatis = experiment: Synergy by checkerboard titration (microdilution); assay type: cell-based; conditions: M. smegmatis
# MTB in J774A.1 cells = experiment: Intracellular activity of SQ641 with efflux pump blockers; assay type: cell-based, Mycobacterium tuberculosis; conditions: INH 0.25 μg/ml
# MTB inside macrophages = experiment: Intracellular activity of DMSO-solubilized drug in MTB infected macrophages; assay type: cell-based, Mycobacterium tuberculosis; conditions: for Mean RLU at Day 7: Day 0 RLU 443, Control Day 7 4251
# MTB [1] = assay type: in vivo, mouse; conditions: 2 weeks treatment; for Lung CFU ± SD: Control 3.8 ± 1.9 × 10^8; for Lung Log CFU: Control 8.58
# MTB in J774 cells = experiment: Intracellular activity of amino acid conjugates; assay type: cell-based, Mycobacterium tuberculosis; conditions: 0.125 μg/ml; day 0 RLU 775, Control day 7 31700
# Procedure: The amino acid conjugates were tested at concentrations of 4 mg/mL and 8 mg/mL compared with a control and isoniazid (INH).
# The intracellular activity against MTB by capuramycin amino acid derivatives was tested. Cells J774 were infected with MTB and treated for 7 days with the amino acid derivative. The mean Relative Light Unites (RLU), an estimation of bacterial viability, was measured as described in Snewin et al., Infect. Immun., 1999, 67(9), 4586-4593).
# [2] = tested on: M. kansaii (MKN; ATCC12478 & 35775); experiment: MIC by microdilution method in 7H9 broth; assay type: cell-based, M. kansasii; conditions: Mycobacterium kansasii, read-out: MIC
# [3] = tested on: MTB-pSMT1 luciferase reporter strain; experiment: Activity against slowly replicating (hypoxic) MTB; assay type: cell-based; conditions: Mycobacterium tuberculosis
# MTB in macrophages = assay type: cell-based, Mycobacterium tuberculosis
# [4] = tested on: intracellular MTB (MTBp-SMT1) in J774A.1 macrophages; experiment: Intracellular activity of SQ641-TPGS micelles; assay type: cell-based, Mycobacterium tuberculosis
# [5] = tested on: M. abscessus (MAB; ATCC 700869); experiment: MIC by microdilution method in 7H9 broth; assay type: cell-based; conditions: Mycobacteroides abscessus, ATCC700869; MAB 700869; read-out: MIC
# [6] = tested on: M. smegmatis (MSMG; MC2155); experiment: MIC by microdilution method in 7H9 broth; assay type: cell-based; conditions: MSMG MC^2155, 72 hr
# MTB-H37Rv = experiment: Post-antibiotic effect (PAE); assay type: cell-based, Mycobacterium tuberculosis; conditions: 4 μg/ml, 2 hr of exposure
# Procedure: PAE of SQ641. PAE of SQ641 was determined as described (Chan et al. Antimicrob. Agents Chemother., 2004, 48(1), 340-343). At the end of incubation, suspensions were diluted 1/25, and 0.1 ml was injected into each of triplicate BACTEC vials: drug dilution was 1000-fold in the BACTEC vials. Drug carryover controls (to ascertain absence of any carryover drug) consisting of the same MTB suspension as in the test and similar drug dilutions were mixed immediately, diluted 1/25, and 0.1 ml was injected into BACTEC vials. BACTEC vials were incubated at 37° C. and read in a BACTEC TB-460 reader every 24 hr until the cumulative GI in the control reached 999. PAE was calculated from the formula PAE=T−C, where T is the time required for the drug-exposed organisms to reach a cumulative GI of 100 and C is the time required for the controls to reach a cumulative GI of 100.
# PAE determines the time required for the organisms to recover following exposure to an antimicrobial agent for a short duration. PAE activities of both SQ641 and INH, each at 4 μg/ml, were investigated with MTB-H37Rv. Following 2 hr of exposure to drugs, the PAE of INH was 17 hr as compared to 55 hr for SQ641. The PAE of SQ641 was over 3 times that of INH.
# MTB cultures = experiment: Induction of morphological changes and bacterial disintegration; assay type: cell-based, Mycobacterium tuberculosis
# Excerpt: Induction of morphological changes and bacterial disintegration. […] Tubercle bacilli exposed to CM analogues were typically club-shaped, with deeply stained swollen ends (see Reddy et al. Antimicrob. Agents Chemother., 2008, 52(2), 719-721).
# MTB [7] = experiment: In vivo efficacy in mouse model of chronic TB disease (lung CFU); conditions: mice treated for 3 wk, starting 3 wk after infection, gav, ip, iv
# Procedure: In vivo activity against MTB. In vivo efficacy of CM analogues was investigated in a mouse model of chronic TB disease (FIG. 2). Three wk after infection, mice were treated for 3 wk with the drugs by gavage (gav), intraperitoneal injection (ip), intravenous injection (iv), or intranasal (in) routes. Efficacy was analyzed by determining Colony-Forming Units (CFU) in lungs. […] Each achieved a decrease of 1-log10 lung CFU compared to the late control [LC] CFU by at least one route, which varied for each drug.
# [8] = tested on: Mycobacterium tuberculosis (MTB); experiment: MIC by BACTEC radiometric method; assay type: cell-based
# Procedure: Determination of MIC. MIC of drugs for laboratory and clinical strains of Mycobacterium tuberculosis (MTB) was determined by BACTEC radiometric method as described by Heifets (1991), “Antituberculosis Drugs: Antimicrobial Activity in vitro, Drug Susceptibility in the Chemotherapy of Microbacterial Infections, Boca Raton, Fla., CRC Press and Luna-Herrera et al., Antimicrob. Agents and Chemother. 1995, 39(2), 440-444. […] The minimal inhibitory concentration (MIC) was defined as the lowest concentrations of drug that caused GI equal to or less than that of the 1/100 dilution growth control. Capuramycin analogues SQ641, SQ922 and SQ997 were tested at concentrations ranging from […].
# MSMG and MTB (H37Rv) = experiment: Minimum bactericidal concentration (MBC), MBC/MIC ratio; assay type: cell-based, Mycobacterium tuberculosis; M. smegmatis
# [9] = 4-day IV injections at 500 mg/kg/day
# M. avium complex (MAC) = experiment: MIC by microdilution method in 7H9 broth; assay type: cell-based; conditions: Mycobacterium avium; for MIC: read-out: MIC
# translocase I = translocase I (Escherichia coli, UniProt P0A6W3); experiment: IC50 against translocase I; assay type: biochemical
# [10] = ATCC 12478 / ATCC 35775, MKN ATCC35775
# [11] = Mycolicibacterium smegmatis, MC2155|MC^2155, read-out: MIC
# translocase I, sequence (P0A6W3 whole entry): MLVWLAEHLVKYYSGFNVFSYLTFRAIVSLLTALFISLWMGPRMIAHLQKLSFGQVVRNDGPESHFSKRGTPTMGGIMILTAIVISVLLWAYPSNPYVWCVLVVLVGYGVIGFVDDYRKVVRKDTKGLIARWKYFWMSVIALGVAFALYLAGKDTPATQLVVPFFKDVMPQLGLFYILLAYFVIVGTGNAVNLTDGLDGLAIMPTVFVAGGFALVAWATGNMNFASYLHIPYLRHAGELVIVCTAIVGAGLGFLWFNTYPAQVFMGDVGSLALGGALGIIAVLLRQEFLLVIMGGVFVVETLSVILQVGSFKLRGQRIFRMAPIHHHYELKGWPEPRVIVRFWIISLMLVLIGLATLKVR
compound,measurement,setting,value
CO[C@H]1[C@@H](OC(=O)[C@@H](N)C(C)C)[C@H](N2C=CC(=O)NC2)O[C@@H]1[C@@H](OC1OC(C(=O)N[C@H]2CCC[C@@H](C)NC2=O)=C[C@H](O)[C@@H]1O)C(N)=O (stereo partly drawn) [Compound 997-L-Val],IC50,in vitro,> 32 µg/mL
same,MIC,MTB H37Rv,12.5 µg/mL
"NNC(=O)c1ccncc1 [INH, isoniazid, reference compound]",MIC Combination,M. smegmatis; combination SQ641 + INH,1.0 µg/mL
same,MIC,"M. smegmatis; Mycolicibacterium smegmatis, drug alone",8 µg/mL
same,Mean RLU at Day 7,"MTB in J774A.1 cells; Table 13, Day 0 RLU 425, Control Day 7 6283",127 RLU
same,Mean RLU at Day 7,"MTB in J774A.1 cells; Table 14, Day 0 RLU 811, Control Day 7 3004",20 RLU
same,Mean RLU at Day 7,MTB inside macrophages; 0.25 μg/ml (2 X MIC),11 RLU
same,Lung CFU ± SD,"MTB [1]; PO, 25 mg/kg",1.9 ± 0.8 × 10^7 CFU
same,Lung Log CFU,"MTB [1]; PO, 25 mg/kg",7.28 Log CFU
same,Mean RLU on day 7,MTB in J774 cells,131 RLU
same,MIC,[2]; [10],1 µg/mL
same,MIC,[2]; MKN ATCC12478,2 µg/mL
same,MIC,[3],0.062 µg/mL
same,MIC,"[3]; Hypoxic, […]",0.125 µg/mL
same,Mean RLU on day 7,"MTB in macrophages; INH 0.125 μg/ml, day 0 RLU 1397, Control day 7 9075",434 RLU
same,Mean RLU at Day 7,"[4]; Expt 1, one day drug exposure, 0.5 μg/ml, Day 0 RLU 104, CONTROL Day 7 906",8 RLU
same,Mean RLU at Day 7,"[4]; Expt 2, four days drug exposure, 0.25 μg/ml, Day 0 RLU 205, CONTROL Day 7 491",1 RLU
same,MIC,[5],> 32 µg/mL
same,MIC,[6]; [11],8 µg/mL
same,PAE (post-antibiotic effect),MTB-H37Rv,17 h
CO[C@H]1[C@@H](O)[C@H](n2ccc(=O)[nH]c2=O)O[C@@H]1[C@@H](O[C@H]1OC(C(=O)Nc2ccc(F)c(F)c2)=C[C@H](O)[C@@H]1O)C(N)=O [SQ922],Mean RLU at Day 7,MTB inside macrophages; 2 μg/ml,1164 RLU
same,Mean RLU at Day 7,MTB inside macrophages; 4 μg/ml,1080 RLU
same,Mean RLU at Day 7,MTB inside macrophages; 8 μg/ml,1111 RLU
same,Mean RLU at Day 7,MTB inside macrophages; 16 μg/ml,496 RLU
same,Mean RLU at Day 7,MTB inside macrophages; 32 μg/ml,311 RLU
same,Mean RLU at Day 7,MTB inside macrophages; 64 μg/ml,134 RLU
same,Intracellular activity (FIG. 1),MTB inside macrophages; 1× and 2× MIC,showed intracellular activities
same,MIC,[2]; [10],1 µg/mL
same,MIC,[2]; MKN ATCC12478,16 µg/mL
same,Bacterial disintegration / clearance of MTB cultures,MTB cultures; MTB cultures,rapid bacterial disintegration
same,Turbidity of MTB cultures,MTB cultures; within 2 days of exposure,marked fall in the turbidity
same,Routes by which replication of MTB in lungs was prevented (vs early control),MTB [7],most routes
same,MIC,"[8]; H37RV, MTB strain H37Rv",2 µg/mL
same,MIC90,[8]; MTB,8 µg/mL
same,MIC,[8]; MTB strain 16,8 µg/mL
same,MIC,[8]; MTB strain 113,2 µg/mL
same,MIC,[8]; MTB strain 158,2 µg/mL
same,MIC,[8]; MTB strain 606,4 µg/mL
same,MIC,[8]; MTB strain 847,4 µg/mL
same,MIC,[8]; MTB strain 1351,2 µg/mL
same,MIC,[8]; MTB strain 1407,2 µg/mL
same,MIC,[8]; MTB strain 1498,4 µg/mL
same,MIC,[8]; MTB strain 1665,4 µg/mL
same,MIC,[8]; MTB strain 1703,8 µg/mL
same,MIC,[8]; MTB strain 1760,8 µg/mL
same,MIC,[8]; MTB strain 1782,8 µg/mL
same,MIC,[8]; MTB strain 1901,4 µg/mL
same,MIC,[8]; MTB strain 1921,4 µg/mL
same,MIC,[8]; MTB strain 2224,4 µg/mL
same,MIC,[8]; MTB strain 2554,4 µg/mL
same,MIC,[8]; MTB strain 2693,4 µg/mL
same,MIC,[8]; MTB strain 8266,2 µg/mL
same,MIC,[8]; MTB strain 8642,2 µg/mL
same,MBC/MIC ratio,MSMG and MTB (H37Rv),1
same,MIC,[5],16 µg/mL
same,Toxicity,[9],No toxicity
same,MIC,M. avium complex (MAC); MAC strain 100,4 µg/mL
same,MIC,M. avium complex (MAC); MAC strain 101,1 µg/mL
same,MIC,M. avium complex (MAC); MAC strain 104,4 µg/mL
same,MIC,M. avium complex (MAC); MAC strain 109,0.5 µg/mL
same,MIC,M. avium complex (MAC); MAC strain A5,2 µg/mL
same,MIC,M. avium complex (MAC); MAC strain JSH1,16 µg/mL
same,MIC,M. avium complex (MAC); MAC strain NIH C1-1,> 32 µg/mL
same,MIC,M. avium complex (MAC); MAC strain NIH C1-2,1 µg/mL
same,MIC,M. avium complex (MAC); MAC strain NIH C1-3,8 µg/mL
same,MIC,M. avium complex (MAC); MAC strain NIH C1-4,2 µg/mL
same,MIC90,"M. avium complex (MAC); MAC isolates, value in square brackets, read-out: MIC90",16 µg/mL
same,IC50 against translocase I,translocase I,0.009 µg/mL
same,MIC,[6],2 µg/mL
same,MIC,[6]; [11],2 µg/mL
D-alpha-tocopheryl poly(ethylene glycol) 1000 succinate [TPGS],Lung CFU ± SD,"MTB [1]; IP, 250 mg/kg",3.0 ± 1.3 × 10^8 CFU
same,Lung Log CFU,"MTB [1]; IP, 250 mg/kg",8.48 Log CFU
same,Effect of TPGS alone on MTB growth in macrophages,MTB in macrophages,increased MTB growth
same,Mean RLU on day 7,MTB in macrophages,13903 RLU and 14595 RLU and 13942 RLU
